{"source": "patent US11135203B2", "about": "“Forazolines, compositions thereof and uses thereof” (Wisconsin Alumni Research Foundation, priority 2013, dated 2021)", "key": {"[1]": {"tested_on": "Saccharomyces cerevisiae deletion mutant strains", "assay": "Chemical genomic profiling against deletion mutant yeast strains", "assay_type": "cell-based", "conditions": "for sensitivity of mutant LEM3-Δ: chemical genomic profile of known antifungal agents", "description": "This method has been used to explore the mechanism of action for bioactive compounds, including natural products. Forazoline A was screened against over four thousand deletion mutant yeast strains, genomic DNA was extracted, and mutant-specific DNA barcodes were amplified and sequenced by Illumina sequencing. Forazoline A sensitive and resistant mutants were determined by quantification of DNA-barcodes, which provided a chemical genomic profile used to evaluate the mechanism of action."}, "Water solubility": {"assay": "Water solubility", "assay_type": "physicochemical"}, "[2]": {"assay": "Synergy studies with amphotericin B (AMB)", "assay_type": "cell-based", "conditions": "combination with amphotericin B"}, "Candida albicans K1": {"tested_on": "Candida albicans K1", "assay": "Neutropenic murine disseminated candidiasis model, kidney organism burden", "assay_type": "in vivo", "conditions": "Candida albicans K1, single dose 2.5, 0.78 and 0.125 mg/kg, after 8 hours", "source_text": "(§1) Animals. Six-week-old ICR Swiss specific-pathogen-free female mice weighing 23 to 27 g were used for all studies. Animals were maintained in accordance with the American Association for Accreditation of Laboratory Care criteria. Animal studies were approved by the University of Wisconsin Animal Care Committee.\nInfection model. A neutropenic, murine, disseminated candidiasis model was used for the treatment studies. Mice were rendered neutropenic (polymorphonuclear cell counts of <100 mm^3) by injecting cyclophosphamide subcutaneously 4 days before infection (150 mg/kg of body weight) and 1 day before infection (100 mg/kg). Candida albicans K1 was subcultured on Sabouraud dextrose agar (SDA) 24 h prior to infection. The inocula were prepared by placing three to five colonies into 5 ml of sterile 0.15 M NaCl warmed to 35° C. The final inoculum was adjusted to 0.6 transmittance at 530 nm. Fungal counts of the inocula determined by viable counts on SDA were 5.63±0.38 log10 CFU/mL (mean±standard deviation).\nDisseminated infection with C. albicans organisms was produced by injection of 0.1 ml of the inoculum via the lateral tail vein 2 h prior to the start of antifungal therapy. At the end of the study period (8 h), animals were sacrificed by CO2 asphyxiation. […] The results are expressed as the mean and standard deviation of the log10 CFU/kidney from three mice. […]"}, "[3]": {"assay": "Toxic effects observed in treated mice of the candidiasis model", "assay_type": "in vivo", "conditions": "neutropenic mice, 2.5, 0.78 and 0.125 mg/kg, 8 hours", "description": "as §1\nDrug Treatment. […] The intravenous dose was given by the lateral tail vein via a 200 μL infusion. The intraperitoneal dose was administered in 500 μL volume. Control mice were treated with saline. Groups of mice were sacrificed at the start of therapy and 8 hours after therapy for determination of organism burden in the kidney as described above."}}, "data": [{"compound": "C[C@@H]1[C@H](O)[C@@H](C)/C=C/C=C/C=C/C=C/C=C/C=C/C=C/[C@H](O[C@@H]2O[C@H](C)[C@@H](O)[C@H](N)[C@@H]2O)C[C@@H]2O[C@](O)(C[C@@H](O)C[C@@H](O)[C@H](O)CC[C@@H](O)C[C@@H](O)CC(=O)O[C@H]1C)C[C@H](O)[C@H]2C(=O)O", "note": "[amphotericin, amphotericin B]", "values": [{"measurement": "sensitivity of mutant LEM3-Δ", "setting": "[1]", "value": "not among the most sensitive strains"}]}, {"compound": "CO[C@H]1[S+]([O-])C2=CC(=O)[C@](C)(O[C@H]3CC[C@H](N(C)C)[C@@H](C)O3)[C@@H](O)CCC(C)=C[C@@H]3[C@@H](C)[C@](C)(Cl)[C@@H](C[C@H]3O[C@H]3CC[C@H](N(C)C)[C@@H](C)O3)OC(=O)[C@@H]3CSC(=N3)[C@]1(C)N2", "note": "(some centres unmarked) [Forazoline A]", "values": [{"measurement": "gene enrichment of top sensitive mutant strains (P<0.0001)", "setting": "[1]; GO: 0045332, P=0.0009, driven by LEM3 and FPK1 deletion mutants", "value": "significantly enriched for genes involved in phospholipid translocation"}, {"measurement": "water solubility", "setting": "Water solubility", "value": "about 5 mg/mL"}, {"measurement": "interaction when tested with AMB", "setting": "[2]", "value": "synergy"}, {"measurement": "reduction in organism burden compared to control mice", "setting": "Candida albicans K1", "value": "1.5+/−0.12 log10 cfu/kidney"}, {"measurement": "toxic effects from the compound", "setting": "[3]", "value": "No toxic effects"}]}, {"compound": "CC[C@H](C)C[C@H](C)CCCCCCCCC(=O)N[C@H]1C[C@@H](O)[C@@H](NCCN)NC(=O)[C@@H]2[C@@H](O)CCN2C(=O)[C@H]([C@H](O)CCN)NC(=O)[C@H]([C@H](O)[C@@H](O)c2ccc(O)cc2)NC(=O)[C@@H]2C[C@@H](O)CN2C(=O)[C@H]([C@@H](C)O)NC1=O", "note": "[caspofungin]", "values": [{"measurement": "sensitivity of mutant LEM3-Δ", "setting": "[1]", "value": "not among the most sensitive strains"}]}, {"compound": "OC(Cn1cncn1)(Cn1cncn1)c1ccc(F)cc1F", "note": "[fluconazole]", "values": [{"measurement": "sensitivity of mutant LEM3-Δ", "setting": "[1]", "value": "not among the most sensitive strains"}]}]}
